Results on 38 molecules are retold here after ChEMBL document CHEMBL1155460, “Prediction of acetylcholinesterase inhibitors and characterization of correlative molecular descriptors by machine learning methods” (Eur J Med Chem, 2010).

For the assay, the target named is Acetylcholinesterase (Homo sapiens, UniProt P22303).
Acetylcholinesterase, sequence (P22303 whole entry): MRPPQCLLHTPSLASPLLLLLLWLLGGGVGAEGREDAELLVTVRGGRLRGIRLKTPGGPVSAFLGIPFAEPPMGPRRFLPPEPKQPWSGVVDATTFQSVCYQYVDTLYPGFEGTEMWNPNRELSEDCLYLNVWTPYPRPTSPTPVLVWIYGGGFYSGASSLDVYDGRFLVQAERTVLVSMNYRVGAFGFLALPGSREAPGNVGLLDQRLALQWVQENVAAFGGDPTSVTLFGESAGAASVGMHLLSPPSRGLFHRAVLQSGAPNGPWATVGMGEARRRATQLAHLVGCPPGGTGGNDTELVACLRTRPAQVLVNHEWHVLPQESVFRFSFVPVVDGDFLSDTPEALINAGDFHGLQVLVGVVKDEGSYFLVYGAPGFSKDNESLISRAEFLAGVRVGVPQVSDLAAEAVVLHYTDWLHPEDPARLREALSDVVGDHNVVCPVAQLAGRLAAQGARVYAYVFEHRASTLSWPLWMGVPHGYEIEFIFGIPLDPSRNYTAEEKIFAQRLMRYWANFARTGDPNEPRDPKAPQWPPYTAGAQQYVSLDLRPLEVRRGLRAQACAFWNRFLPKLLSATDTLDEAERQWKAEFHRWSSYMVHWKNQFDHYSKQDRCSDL
Regarding `COc1cc2c(cc1OC)C(=O)C(CC1CCN(c3ccccc3)CC1)C2` (stereo not drawn), the IC50 is 5.7 nM.

As to `Cc1cccc2n1cc(-c1cccc(OC(=O)N(C)C)c1)[n+]2C`, the IC50 is 24000 nM.

Regarding `CCN1CCCCc2ccc(C(=O)CCC3CCN(Cc4ccccc4)CC3)cc21`, the IC50 was determined as 376 nM.

Turning to `CNC(=O)Oc1ccc(-c2cn3c(NC(C)=O)cccc3[n+]2C)cc1`, the IC50 was 1100 nM.

`Cc1cc(-c2ccccc2)nnc1NCCN1CCOCC1` [MINAPRINE] returned an IC50 of 85000 nM.

Molecule `Nc1c2c(nc3ccccc13)CCCc1ccccc1-2` had an IC50 of 38200 nM.

The molecule `CN(CCNc1ccc(-c2ccccc2)nn1)Cc1ccccc1` returned a half-inhibitory concentration (IC50) of 170000 nM.

For the molecule `Fc1ccc(N(Cc2ccc3c(c2)OCO3)C(=S)Nc2cccc(C(F)(F)F)c2)cc1`, the IC50 was 8000 nM.

Molecule `c1ccc(CN2CCC(CCN3CCc4ccccc4C3)CC2)cc1` yielded an IC50 of 1600 nM.

In turn, `CNC(=O)Oc1ccc(-c2cn3c(C)cccc3[n+]2C)cc1` had an IC50 of 4000 nM.

`CCCCCCNC(=O)Oc1cccc(CN(C)CCCCOc2ccc3c(=O)c4ccccc4oc3c2)c1` showed an IC50 of 100 nM. This IC50 is about 40-fold lower than that of the molecule before.

`Nc1cccc2c1C(=O)N(CCC1CCN(Cc3ccccc3)CC1)C2=O`: the IC50 amounted to 11 nM.

Regarding `Cc1cc(=NCCC2CCN(Cc3ccccc3)CC2)[nH]nc1-c1ccccc1`, the half-maximal inhibitory concentration (IC50) was 21 nM.

Molecule `O=C(CCC1CCN(Cc2cccc(Cl)c2)CC1)c1ccc2c(c1)CCN2` yielded an IC50 of 59 nM.

`O=C(CCc1c[nH]c2ccccc12)NCCCCCCCCCNc1c2c(nc3cc(Cl)ccc13)CCCC2` displayed a concentration for half-maximal inhibition (IC50) of […].

As to `Cc1ccc(C(=O)NC(=S)NCCOCCN(C)Cc2ccccc2)cc1`, the IC50 was determined as 77 nM.

Take `c1ccc(-c2ccc(NCCCCCN3Cc4ccccc4CN3)nn2)cc1`: the IC50 came out at 10000 nM.

For `c1ccc(-c2ccc(NCCN3CCCCC3)nn2)cc1`, the IC50 came to 13000 nM.

`O=C(CCc1c[nH]c2ccccc12)NCCCCCCCNc1c2c(nc3ccccc13)CCCC2` had an IC50 of 0.06 nM.

Molecule `O=c1c2ccccc2ncn1CCC1CCN(Cc2ccccc2)CC1` gave an IC50 of 1200 nM.

Turning to `CCCCCCNC(=O)Oc1cccc(CN(C)CCCOc2ccc3c(=O)cc(-c4ccccc4)oc3c2)c1`, the IC50 worked out at 68 nM.

The molecule `O=C1c2ccccc2CCCC1CC1CCN(c2ccccc2)CC1` (stereo not drawn) yielded an IC50 of 15000 nM. This IC50 lies about 220-fold higher than the previous one.

In turn, `O=C(CCc1c[nH]c2ccccc12)NCCCCCCNc1c2c(nc3ccccc13)CCCC2` returned an IC50 of 0.02 nM.

`c1ccc2c(NCCCCCCCCNc3ccncc3)c3c(nc2c1)CCCC3` showed an IC50 of 13.6 nM.

As for `NCCCCCCCNc1c2c(nc3ccccc13)CCCC2`, the IC50 is 319 nM.

For the molecule `CCCCN1CCc2cc(C(=O)CCC3CCN(Cc4ccccc4)CC3)ccc21`, the IC50 was found to be 29 nM.

As for `O=C(c1ccc(F)cc1)N(CCC1CCN(Cc2ccccc2)CC1)c1ccccc1`, the IC50 was determined as 18 nM.

`c1ccc(-c2ccc(NCCCCN3CCc4ccccc4C3)nn2)cc1` came in with an IC50 of 15000 nM.

Take `CCCCCCNC(=O)Oc1ccc2c(c1)[C@]1(C)CCN(C)[C@@H]1C2`: the IC50 came out at 10 nM.

`CN(C)C(=O)Oc1ccc(-c2cn3ccccc3[n+]2C)cc1` yielded an IC50 of 17100 nM.

Molecule `O=C1c2ccc([N+](=O)[O-])cc2C(=O)N1CCC1CCN(Cc2ccccc2)CC1` came in with an IC50 of 12.5 nM.

Regarding `c1ccc2c(NCCCCCCNc3c4c(nc5ncccc35)CCCCC4)c3c(nc2c1)CCCCC3`, the IC50 was found to be 2.5 nM. This IC50 lies about 5-fold lower than the previous one.

As to `CCCCNC(=O)Oc1ccc2c(c1)C1CCN(CC)C1C2` (stereo not drawn), half-maximal inhibition (IC50) required 1080 nM.

For the molecule `O=C(CCC1CCN(Cc2ccccc2)CC1)c1ccc2c(c1)N(Cc1ccccc1)CCCC2`, the IC50 was found to be 3140 nM.

Turning to `CC(=O)N(CCC1CCN(Cc2ccccc2)CC1)c1cccc(F)c1`, inhibition was half-maximal at 65 nM (IC50).

`COc1ccccc1CN(C)CCCCCC(=O)N(C)CCCCCCCCN(C)C(=O)CCCCCN(C)Cc1ccccc1OC` [CAPROCTAMINE] registered an IC50 of 104 nM.

As for `CCCNC(=O)Oc1ccc2c(c1)C1CCN(CC)C1C2` (stereo not drawn), the IC50 came out at 2190 nM.

In the case of `CN(CCOCCNC(=S)NC(=O)c1ccc2c(c1)C(=O)c1ccccc1C2=O)Cc1ccccc1`, the IC50 is 6 nM.
